# Experiment: in vivo
# Conditions: male, Beagle, dog, po
# Excerpt: In this evaluation 8 male Beagle breed dogs, 6 months to 2 years of age, and at least 10 kg in weight were used. Dogs were housed in individual indoor cages in compliance with standards outlined in the Guide for the Care and Use of Laboratory Animals of the Institute of Laboratory Animal resources, National Research Council. The dogs were fed an appropriate amount of standard commercial dry ration once per day. Fresh tap water in water bowls was provided ad libitum. On the day before the test compounds were administered, food was removed from the dogs by 4:00 pm. Food was withheld until after taking blood samples at the 4 h time point after administration of test materials. Dogs were weighed and ranked by descending weight order and were given physical exams by a veterinarian. The two heaviest dogs were randomly assigned to Group 1 or 2. The second two heaviest dogs were randomly assigned to Group 1 or 2 and so on, until all 8 dogs were placed into either of the two groups. Group 1 with 4 dogs/group, was treated orally with 15 mg/kg of the acetamide test compound and Group 2 was treated orally with 15 mg/kg of the carbonitrile test compound. One week after treatment all dogs were reweighed to ensure correct dosing. Two weeks after treatment, Group 1 was treated orally with 30 mg/kg of the acetamide test compound and Group 2 was treated orally with 30 mg/kg of the carbonitrile test compound. A treatment vial containing an appropriate amount of test compound was provided for each dog. The appropriate amount of vehicle (water containing 0.5% Methocel A4M and 0.01% polysorbate 80) was added to the vial and the contents of the vial were thoroughly mixed. The resultant suspension was withdrawn with an unarmed disposable 12 ml plastic syringe and administered to the dog. Test suspensions were administered to the back of the throat to ensure that they were reliably and completely swallowed by the dog. The vials were rinsed with 0.5 ml vehicle per kg of body weight and the rinsate was administered to the dog. Blood samples were collected at regular time intervals and analyzed for concentration of test compound. The Cmax value (the maximum compound concentration in the plasma) and the Tmax value (the time, after dosing, at which the peak compound concentration was obtained) were determined by observation. For Table I, the term “Acetamide” designates N-methyl-N-[3-(3-methyl-1,2,4-triazolo-[4,3-b]pyridazin-6-yl)phenyl]acetamide; and the term “Carbonitrile” designates 7-(3-pyridyl)pyrazolo[1,5-a]pyrimidine-3-carbonitrile.
compound,measurement,setting,value
"N#Cc1cnn2c(-c3cccnc3)ccnc12 [Carbonitrile, 7-(3-pyridyl)pyrazolo[1,5-a]pyrimidine-3-carbonitrile]",Cmax,15 mg/kg,3700 ng/mL
same,Tmax,15 mg/kg,4.25 h
same,Cmax,30 mg/kg,6390 ng/mL
same,Tmax,30 mg/kg,8.25 h

# Source: patent publication US20060270677A1, “Method for the treatment of noise phobia in companion animals” (Wyeth, priority 2005, published 2006)
